The subject of test [1] is Human SH-SY5Y cells. Nature of the test: Cell rescue assay: protection against β-amyloid-induced cell toxicity. The test is classed as cell-based. Particulars: 7.5 uM compound, AB1-42 at 10 uM, 4 days, OD at 490 nm. The method, then:
Protection against β-amyloid-induced cell toxicity. Chonpathompikunlert et al. Eu. J. Pharmacol. 2011, 650, 544-549. Human SH-SY5Y cells are suspended in media containing 2% FBS and 2× Gentamicin. Transfer 100 ul/well culture to 96-well plate (20,000 cells/well; passage #5) and incubate overnight. Prepare compound samples at 30 uM. Add 50 ul of the samples to the cells [[…]] and incubate 3 hours. Make stock of 40 uM AB1-42 peptide in assay media. Transfer 50 ul/well to cells/compounds in assay plate. The final assay volume is 200 ul/well, containing 2% FBS, 2× Gentamicin, 7.5 uM compound and AB1-42 at 10 uM. Incubate for 4 days then add 20 ul of Promega Substrate Cell Titer 96 Aqueous One Solution Reagent to each well. Incubate 37° C. and read OD at 490 nm. The results are summarized in Table 3, where A represents a value greater than 50% cell rescue, B represents a value greater than 10% and less than 50% cell rescue, and C represents a value greater than 1% and less than 10% cell rescue.

The subject of test [2] is Human embryonic kidney (HEK293) cells; Mouse neuroblastoma (N2a) cells. Briefly: Cell rescue assay: protection against thapsigargin (TG)-induced cell-death (ALAMARBLUE). Particulars: compound 20 μM, 2 hrs before thapsigargin (15 μM for HEK293 cells, 1 μM for N2a cells), 24 hrs; viability as % RFU compared to control. The test is classed as cell-based. The method, then: Protection against Thapsigargin (TG)-induced Cell-death. Human embryonic kidney (HEK293) cells were grown in Dulbecco's Modified Eagle's Medium (DMEM) with 10% FBS and 1% antibiotic antimycotic solution (ABAM). Mouse neuroblastoma (N2a) cells were grown in 1:1 DMEM:OPTI-MEM® with 5% FBS and 1% ABAM. All cells were grown in 10% CO2 in a humidified environment of the incubator. Cells grown in 96-well plates were exposed to a test compound (20 μM) for 2 hrs before addition of thapsigargin (15 μM for HEK293 cells and 1 μM for N2a cells) to induce ER stress. After incubation in cell-culture incubator for 24 hrs, ALAMARBLUE® regent (10% v/v) was added to the wells. Fluorescence reading was taken 2 hrs after the addition of the ALAMARBLUE® regent. Cell-viability was calculated as a percentage of relative fluorescence unit (RFU) compared to control. […] The biological results are summarized in Table 2, where each compound was tested at 20 μM and where A represents a viability greater than 50%, B represents a viability greater than 10% and less than 50%, C represents a value below 10%.
Background: The colour change of resazurin is a common sign of viable cells or microbes.

In test [3] the test system is Ob/ob mice. Briefly: Effect of a SERCA agonist on the level of blood glucose. In kind it is in vivo, mouse. Particulars: 50 mg/kg i.p. once a day for 5 days, fasting glucose at baseline and 4 days after administration. The method, then: Ob/ob mice (10 weeks old, n=7) were intraperitoneally (i.p.) injected with 100 μL of a solution containing 0 (vehicle) or 50 mg/kg of a test compound once a day for a total of 5 days. Fasting glucose was measured at baseline and 4 days after the administration of the test compound. Glucose levels were measured in blood samples drawn from the tail vein using a handheld glucose sensor. Compound effects on blood glucose are shown in Table 5 where A represents a 10-20% reduction in blood glucose, B represents a 21-30% reduction in blood glucose, and C represents a greater than 30% reduction in blood glucose levels.

Test [4] concerns the target T1, SERCA (microsomal preparations from HEK 293 cells) (Homo sapiens, UniProt P16615).
T1 construct: endogenous in cells; host or cells: HEK 293 cells (microsomal preparation)
Briefly: Ca-ATPase assay (NADH-linked, enzyme-coupled ATPase assay). The test is classed as biochemical. Particulars: ATP hydrolysis rate over a range of calcium concentrations, Vmax by fit to Hill function, relative to controls. The method, then:
A Ca-ATPase assay was performed using microsomal preparations from HEK 293 cells at a series of calcium concentrations corresponding to the physiological range, relative to controls. The ATP hydrolysis rate was measured over a range of calcium concentrations in the presence of test compounds using an NADH-linked, enzyme-coupled ATPase assay adapted for 96-well microplates, with Vmax determined by fitting the ATPase calcium-dependence to the Hill function. Each well contained 2 μg or 7 μg of SR vesicles (optimized for skeletal or cardiac SR, respectively), 50 mM MOPS (pH 7.0), 100 mM KCl, 5 mM MgCl2, 1 mM EGTA, 0.2 mM NADH, 1 mM phosphoenol pyruvate, 5 IU pyruvate kinase, 5 IU lactate dehydrogenase, and 3.5 μg/mL A23187 (a calcium ionophore). CaCl2 was added to set free [Ca^2+] to the specific values. The assay was started upon addition of ATP at a final concentration of 5 mM, and read in a SpectraMax Plus microplate spectrophotometer. The results are summarized in Table 4, where A represents an increase in SERCA Vmax greater than 50% and B represents a value greater than 10% and less than 50%.

The subject of test [5] is CSM14.1 neuronal cells. Briefly: Cell survival assay (thapsigargin-induced cell death, CELLTITER-GLO luminescence). In kind it is cell-based. The following applies: CSM14.1 cells, compound 2 hrs before about 15 μM thapsigargin, overnight (about 16 to 24 hrs), cell viability. The method, then:
CSM14.1 neuronal cells were maintained in Complete Medium at 32° C.; wherein the Complete Medium contained Dulbecco's modified eagle medium (DMEM) with 10% fetal bovine serum (FSB), 1% L-glutamine, 100 IU/mL penicillin, and 100 μg/mL streptomycin. The cells were recovered from cultures by trypsinization and then seeded in 384 well plates (Greiner #781098) at a concentration of 1,000 cells/well in 20 μL of DMEM Assay Medium, wherein the DMEM Assay Medium contained 2% FBS, 100 IU/mL penicillin, and 100 μg/mL streptomycin. Seeding was performed using a MultiDrop Combi reagent broadcaster. The plates were incubated overnight at 32° C. A test compound was prepared by 2-fold serial dilution in 100% DMSO using a BIOMEK® 2000 liquid handler (Beckman Coulter). A dose-response curve containing 10 concentrations of the test compound was obtained. Using a BIOMEK® FX liquid handler (Beckman Coulter), 2.5 μL of the test compound was transferred from the 100% DMSO serial dilution plate to an intermediate plate containing 47.5 μL of DMEM Assay Medium containing 2% FBS, 100 IU/mL penicillin, and 100 μg/mL streptomycin and mixed. To reduce or eliminate the interference from the compound's precipitation, 6 μL of the diluted compound was immediately transferred to the assay plate to achieve a high compound concentration of 100 μM in 99% DMEM Assay Medium and 1% DMSO. After the assay plates were incubated for 2 hrs, 4 μL of 112.5 μM thapsigargin (TG) (DMSO stock diluted into Assay TC Medium) was dispensed into each testing well with a MultiDrop Combi reagent broadcaster for a final concentration of about 15 μM TG. The tissue culture media (4 μL) containing vehicle only was transferred manually to each control cell using a 16 channel electronic pipette. After the plates were incubated overnight (about 16 to 24 hrs), CELLTITER-GLO® (Promega) (16 μL) was added to all wells and luminescence was measured. High luminescence indicates cell survival. The biological results are summarized in Table 1 where A represents a cell viability EC50 less than 1 μM and B represents a value greater than 1 μM and less than 10 μM.
(Cellular ATP, detected with luciferase, serves as a proxy for viable cell number.)

T1 sequence (P16615 whole entry): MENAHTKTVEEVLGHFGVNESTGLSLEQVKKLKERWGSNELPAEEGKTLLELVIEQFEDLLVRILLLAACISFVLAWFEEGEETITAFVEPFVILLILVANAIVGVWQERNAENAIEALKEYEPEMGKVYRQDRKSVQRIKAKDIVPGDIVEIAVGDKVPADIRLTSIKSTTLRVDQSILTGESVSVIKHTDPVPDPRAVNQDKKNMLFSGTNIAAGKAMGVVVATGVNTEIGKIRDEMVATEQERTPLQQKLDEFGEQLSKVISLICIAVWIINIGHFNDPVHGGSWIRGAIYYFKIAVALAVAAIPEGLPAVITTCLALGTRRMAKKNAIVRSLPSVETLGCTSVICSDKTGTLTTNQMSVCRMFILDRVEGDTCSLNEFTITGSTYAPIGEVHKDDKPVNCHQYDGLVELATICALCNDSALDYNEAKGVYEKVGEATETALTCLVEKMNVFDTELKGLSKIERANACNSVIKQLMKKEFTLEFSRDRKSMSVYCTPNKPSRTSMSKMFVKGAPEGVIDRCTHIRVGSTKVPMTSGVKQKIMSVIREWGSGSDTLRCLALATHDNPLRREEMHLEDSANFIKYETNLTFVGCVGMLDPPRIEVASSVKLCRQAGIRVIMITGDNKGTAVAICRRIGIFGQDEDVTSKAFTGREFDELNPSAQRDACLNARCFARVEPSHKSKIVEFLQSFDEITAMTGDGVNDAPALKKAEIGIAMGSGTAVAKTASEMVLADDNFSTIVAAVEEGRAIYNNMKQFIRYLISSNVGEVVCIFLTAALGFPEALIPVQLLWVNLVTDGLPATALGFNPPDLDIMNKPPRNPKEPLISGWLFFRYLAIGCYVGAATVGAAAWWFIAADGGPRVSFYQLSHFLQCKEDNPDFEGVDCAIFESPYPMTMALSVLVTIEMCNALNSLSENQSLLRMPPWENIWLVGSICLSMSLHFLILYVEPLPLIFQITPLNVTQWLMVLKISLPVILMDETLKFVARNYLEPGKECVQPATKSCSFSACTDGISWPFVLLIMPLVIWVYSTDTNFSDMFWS

Turning to `Cc1ccc2cccc(/C=C/c3ccc(OC(C)C)cc3)c2n1` [A1, (E)-8-(4-Isopropoxystyryl)-2-methylquinoline], the “Cell Survival % (cell rescue)” value in test [1] is on record as “A (A represents a value greater than 50% cell rescue)”. Also, the “Cell Survival %” value in test [2] is recorded as “A (A represents a viability greater than 50%)”. In addition, the Glucose level reduction entry in test [3] is on record as “C (C represents a greater than 30% reduction in blood glucose levels)”. Also, the “SERCA Vmax Increase” value in test [4] is “A (A represents an increase in SERCA Vmax greater than 50%)”. The EC50 (usually the concentration that produces a half-maximal response) in test [5] was below 1 µM.
In the case of `Cc1ccc2cccc(/C=C/c3cc(Br)cs3)c2n1` [A2, (E)-8-(2-(4-Bromothiophen-2-yl)vinyl)-2-methylquinoline], the “Cell Survival % (cell rescue)” value in test [1] is “B (B represents a value greater than 10% and less than 50% cell rescue)”. In addition, the “Cell Survival %” value in test [2] is on record as “A (A represents a viability greater than 50%)”. The Glucose level reduction result in test [3] is reported as “B (B represents a 21-30% reduction in blood glucose)”. Besides, in test [4], the “SERCA Vmax Increase” value is listed as “A (A represents an increase in SERCA Vmax greater than 50%)”. In test [5], this molecule gave an EC50 below 1 µM.
With `Cc1ccc2cccc(/C=C/c3ccc(Br)s3)c2n1` [A3, (E)-8-(2-(5-Bromothiophen-2-yl)vinyl)-2-methylquinoline], the “Cell Survival % (cell rescue)” value in test [1] was “C (C represents a value greater than 1% and less than 10% cell rescue)”. Besides, in test [2], the “Cell Survival %” value was “B (B represents a viability greater than 10% and less than 50%)”. The Glucose level reduction result in test [3] is given as “B (B represents a 21-30% reduction in blood glucose)”. Also, in test [4], the “SERCA Vmax Increase” value was “A (A represents an increase in SERCA Vmax greater than 50%)”. In test [5], this molecule had an EC50 of 1 to 10 µM.
As to `Cc1ccc2cccc(/C=C/c3ccc(Cl)cc3)c2n1` [A4, (E)-8-(4-Chlorostyryl)-2-methylquinoline], the “Cell Survival % (cell rescue)” value in test [1] is “B (B represents a value greater than 10% and less than 50% cell rescue)”. In addition, the “Cell Survival %” value in test [2] is on record as “C (C represents a value below 10%)”. In test [3], the Glucose level reduction entry is given as “A (A represents a 10-20% reduction in blood glucose)”. Also, the “SERCA Vmax Increase” value in test [4] was “B (B represents a value greater than 10% and less than 50%)”. Also, the EC50 in test [5] was below 1 µM.
As for `Cc1ccc2cccc(/C=C/c3cccc(C(F)(F)F)c3)c2n1` [A5, (E)-8-(3-(Trifluoromethyl)styryl)-2-methylquinoline], the “Cell Survival % (cell rescue)” value in test [1] was “B (B represents a value greater than 10% and less than 50% cell rescue)”. The “Cell Survival %” value in test [2] is “B (B represents a viability greater than 10% and less than 50%)”. The Glucose level reduction entry in test [3] is “B (B represents a 21-30% reduction in blood glucose)”. For the same molecule, the “SERCA Vmax Increase” value in test [4] is listed as “A (A represents an increase in SERCA Vmax greater than 50%)”. The molecule further displayed an EC50 in test [5] of 1 to 10 µM.
On to `Cc1ccc2cccc(/C=C/c3cccc(F)c3)c2n1` [A6, (E)-8-(3-Fluorostyryl)-2-methylquinoline], for which the “Cell Survival % (cell rescue)” value in test [1] is on record as “A (A represents a value greater than 50% cell rescue)”. In addition, the “Cell Survival %” value in test [2] was “B (B represents a viability greater than 10% and less than 50%)”. Moreover, the Glucose level reduction entry in test [3] is “A (A represents a 10-20% reduction in blood glucose)”. The “SERCA Vmax Increase” value in test [4] is “B (B represents a value greater than 10% and less than 50%)”. The concentration for a half-maximal effect (EC50) in test [5] lay in the range of 1 to 10 µM.

The values are drawn from US10800766B2, “Quinoline alkenes as cytoprotective agents” (priority 2015, dated 2020).
